Measured values reported in paper PMC5493479 (Methods (San Diego, Calif.), 2016).

Target: T1, HisRS (Histidyl-tRNA synthetase) (Escherichia coli, UniProt P60906)
T1 sequence (P60906 2-424): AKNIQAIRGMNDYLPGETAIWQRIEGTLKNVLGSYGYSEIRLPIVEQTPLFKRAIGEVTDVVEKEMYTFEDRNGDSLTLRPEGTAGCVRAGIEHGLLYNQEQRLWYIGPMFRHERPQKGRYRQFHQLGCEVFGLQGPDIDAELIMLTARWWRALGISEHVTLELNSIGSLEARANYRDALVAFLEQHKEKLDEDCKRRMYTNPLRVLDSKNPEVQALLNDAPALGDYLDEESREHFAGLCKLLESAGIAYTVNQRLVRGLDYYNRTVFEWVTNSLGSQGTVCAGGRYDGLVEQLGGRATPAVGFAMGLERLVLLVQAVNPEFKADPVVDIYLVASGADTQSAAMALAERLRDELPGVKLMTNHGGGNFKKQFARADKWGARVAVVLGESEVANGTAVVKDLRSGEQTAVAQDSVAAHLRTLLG
Test: differential scanning fluorimetry
Assay type: binding
Details: 10 mM ATP; apo Tm 53.4 ± 1.1 °C; 10 uM enzyme, 20 mM HEPES pH 7.5, 150 mM KCl

ATP 10 mM Tm (°C): 55.8 ± 0.5 °C
Structure (SMILES): Nc1ncnc2c1ncn2[C@@H]1O[C@H](COP(=O)(O)OP(=O)(O)OP(=O)(O)O)[C@@H](O)[C@H]1O [ATP]
